Tests used:
[1] = 1 wt. % minocycline, in vitro
Description: Delivery of minocycline into porcine skin in vitro was measured and compared to delivery of minocycline from a composition of minocycline in saline (i.e, with no decoy molecule). Compositions were prepared containing of 1 wt. % minocycline and 1% of decoy molecule of hyaluronic acid with three molecular weights: 10,000 Da mean, 20,000 Da mean, and 30,000 Da mean. A control formulation containing 1 wt % minocycline in saline was also prepared

[2] = Gabapentin delivery into porcine skin grafts, UPLC-MS; format: in vitro ADME; conditions: 1% gabapentin, 12-20 hours
Description: Delivery of gabapentin with hyaluronic acid into skin in vitro was measured using porcine skin grafts, and compared to delivery of gabapentin from a composition of gabapentin in saline (with no decoy molecule). Groups consisted of A) 1% gabapentin in saline (n=8 replicates), B) 1% gabapentin plus 1% sodium hyaluronate decoy of 3,000 Da in saline (n=8 replicates) or C) saline alone (n=8 replicates) in donor cells.
Briefly, tissues were incubated overnight in 0.5 mL of 50% acetonitrile in deionized water at 55° C. with agitation. Calibration standards and tissue extraction solvent samples were diluted 10× in deionized water before analysis. Diluted standards and samples were analyzed at 1 μL injection volumes. Concentrations were reported as μg/g of gabapentin in tissue.

[3] = 12-20 hours
Description: Porcine buccal tissue was harvested and cleaned of additional tissue. Punch biopsies (n=4 each) were obtained and employed in a transcutaneous flux rig per relevant protocols. […] Flux was continued for 12-20 hours with samples applied and left on donor surfaces.

[4] = in vivo, po; cited from earlier work
[5] = Oral sildenafil bioavailability and assumed tissue concentration; conditions: assuming uniform tissue distribution, average 75 kg male
[6] = 1% sildenafil, 12-20 hours
Text: Replicates of mid-dermal grafts were employed in a transcutaneous flux rig per relevant protocols.

[7] = Sodium salicylate penetration into mid-dermal grafts, OD290 (Example 21); conditions: 1% sodium salicylate, 12-20 hours
Description: Replicates of mid-dermal grafts (grafts and punches for flux rig per Illustris sops), were employed in a transcutaneous flux rig per relevant protocols. […] Flux was continued for 12-20 hours with samples applied and left on donor surfaces.

## CN(C)c1ccc(O)c2c1C[C@H]1C[C@H]3[C@H](N(C)C)C(O)=C(C(N)=O)C(=O)[C@@]3(O)C(O)=C1C2=O [minocycline]
[1]
  penetration of minocycline into porcine skin: low native penetration

## NCC1(CC(=O)O)CCCCC1 [gabapentin alone, gabapentin]
[2]
  tissue levels of gabapentin: 0.09 μg of gabapentin per gram of tissue

## O=C(O)c1ccccc1O [salicylate alone, salicylate]
[3]
  salicylate penetration through buccal tissue versus saline alone: not statistically significant over saline alone

## CCCc1nn(C)c2c(=O)[nH]c(-c3cc(S(=O)(=O)N4CCN(C)CC4)ccc3OCC)nc12 [Sildenafil alone, sildenafil]
[4]
  bioavailability: 41%
[5]
  tissue concentration at currently approved therapeutic dose: 0.137 ug sildenafil per g of tissue
[6]
  sildenafil tissue concentration: not detectable

## O=C([O-])c1ccccc1O.[Na+] [Sodium salicylate, sodium salicylate]
[7]
  OD290 above saline (sodium salicylate in skin homogenate): 0.0165 AU

From patent US20190105261A1, “METHODS AND COMPOSITIONS FOR TOPICAL DELIVERY” (Illustris Pharmaceuticals, Inc., priority 2017, published 2019)
